Test results: PMC6680430, “Quantitative Prediction of Human Pharmacokinetics and Pharmacodynamics of CKD519, a Potent Inhibitor of Cholesteryl Ester Transfer Protein (CETP)” (Pharmaceutics, 2019)

Tests used:
[1] = animal full PK study in rats (NCA and PK model); type: in vivo; details: rat; for Tmax: median (range)
Method: Animal PK data for analysis were collected from preclinical studies performed at ChongKunDang laboratory. All animal experiments were performed with relevant guidelines and regulations, and the protocol was approved by the Institutional Animal Care and Use Committee (IACUC) of ChongKunDang (Approval number: S-13-015). A single dose of CKD519 was administered either orally or via intravenous infusion to hamsters (intravenous dose of 0.5 mg/kg, oral dose of 3, 15, or 45 mg/kg, n = 30); rats (intravenous dose of 0.5 mg/kg, oral dose of 5, 15, or 45 mg/kg, n = 20); and monkeys (intravenous dose of 0.1 mg/kg, oral dose of 1, 5, or 30 mg/kg, n = 16). The identical solution was administered to all animal species in the fasted state. Plasma CKD519 concentration was measured before and at 0.083, 0.25, 0.5, 1, 2, 4, 8, and 24 h after administration in hamsters and rats, and before and at 0.083, 0.25, 0.5, 1, 2, 4, 6, 8, 12, 24, 48, and 72 h after administration in monkeys. Two hamsters given identical doses were sampled in a rotating manner.
The plasma samples were stored at −70 °C before the analysis and were thawed at room temperature. […] A sensitive, specific, and validated liquid chromatography coupled with a tandem mass spectrometer (HPLC-MS/MS) assay was used for the determination of CKD519 concentration in animal plasma samples. A structural analogue of CKD519 was used as the internal standard. The validated working range was from 2 ng/mL (the lower limit of quantification, LLOQ) to 20,000 ng/mL. Quality control (QC) samples were analyzed together with the study samples. Intra-day and inter-day precision and accuracy results were within the acceptance criteria based on the Ministry of Food and Drug Safety (MFDS) guidelines. An exploratory data analysis was performed through non-compartmental analysis (NCA) using the NonCompart package (developed by Bae, version 0.4.4) in R (version 3.5.1, The R Foundation, Vienna, Austria).
Using the PK data from each species, nonlinear mixed-effect modeling was conducted using NONMEM (version 7.4, Icon Development Solutions, Ellicott City, MD, USA) reflecting the clues from NCA. The first-order conditional estimation method with interaction (FOCE-I) was used whenever applicable. The adequacy of the model was checked using changes in the objective function value (OFV), visual inspection of various diagnostic plots (goodness-of-fit (GOF) plot), and methods of visual predictive check (VPC) and bootstrap were used for the diagnostics on the model stability and parameter reliability. The significance of model improvement was evaluated using a likelihood-ratio test (LRT). In the nested models, the result was considered statistically significant if the OFV decreased more than 3.84 (p-value < 0.05, degree of freedom (df) = 1) and 5.99 (p-value < 0.05, df = 2). The degree of freedom is defined as the gap of the numbers of parameters of the two subsequent models that are being compared. In the case of non-nested models, the Akaike information criteria (AIC) value was used to select the model that best described the data. R (version 3.5.1., R Foundation for Statistical Computing, Vienna, Austria) was used for data preparation, NCA, graphical analysis, model diagnostics, and statistical summaries.
Initially, a two-compartment model with first-order absorption was developed to describe the biphasic curve, and several absorption structures (e.g., zero-order with absorption lag time, Weibull-type absorption) were applied to the base model if needed. The change in absolute bioavailability (F) by dose levels was also considered. […]

[2] = overall (interspecies) PK model with allometric relationships; type: in vivo, hamster, rat, monkey; details: for θ3 Coefficient for Vc: Vc = θ3 × WT^θ4 (θ4 fixed 1); for θ7 Coefficient for Vp: Vp = θ7 × WT^θ8 (θ8 fixed 1)
Source text: The volume parameters (Vc, Vp) estimated from the PK models for three different species were correlated through simple allometric scaling (=Body weight-dependent allometry) in the PK model fitted to the overall data from all species. This method is based on the power–law function, which can be represented as follows:Y = a × BW^b,(2) where Y represents the PK parameter of interest from each animal; BW represents the average body weight of each species from the relevant in vivo studies; and a and b are the allometric coefficient and exponent of the equation, respectively.
For the allometric scaling of the clearance parameters (CL, Q) in the same model, physiological parameters such as brain weight (BrW) or maximum lifespan potential (MLP) of each species were incorporated if necessary. To address the uncertainty, two allometric relationships were selected as the final models, and two sets of human PK parameters were predicted: one from the allometry of best fit and the other from the most conventional simple allometry. The appropriateness of the extrapolated human PK parameter values was assessed by comparing them with those of the comparator. Since allometric scaling is not generally recommended for the absorption parameter, human absorption parameters were determined by the final estimates from the overall PK model instead of the allometric method.
The final allometric relationship used in the overall PK model is as follows:Parameter value in each species = a × BW^b (for volume parameters, Vc and Vp),(9) Parameter value in each species = a × BW^b/BrW (for clearance parameters, CL and Q),(10) where BrW and BW represent the average brain weight and body weight of each species, respectively, and a and b are the coefficient and exponent of the allometric relationship, respectively.
The GOF plots of the final PK model are shown in Figure 3 The final parameter estimates from the overall PK model, and the precision of parameter estimates assessed by the bootstrap method are shown in Table 5.

[3] = PK model, final estimate (%RSE)
[4] = intravenous 0.5 mg/kg, NCA, mean ± SD
[5] = two-compartment PK model, final estimate (%RSE)
[6] = brain weight-corrected, estimate

α (scale parameter of Weibull absorption) [1, 3]: 3.86 (3.94%) | β (shape parameter of Weibull absorption) [1, 3]: 2.59 (4.59%) | AUClast [1, 4]: 3940 ± 585 ng·h/mL | V/F * (V for intravenous) [1, 4]: 494 ± 126 mL | ke [1, 4]: 0.0677 ± 0.0214 h⁻¹ | t1/2 [1, 4]: 12.0 ± 2.98 h | Tmax ([1]; intravenous 0.5 mg/kg, NCA): 0.083 (0.083–0.083) h | AUClast ([1]; oral 5 mg/kg, NCA, mean ± SD): 6640 ± 932 ng·h/mL | CL/F ([1]; oral 5 mg/kg, NCA, mean ± SD): 188 ± 28.6 mL/h | Cmax ([1]; oral 5 mg/kg, NCA, mean ± SD): 893 ± 231 ng/mL | V/F ([1]; oral 5 mg/kg, NCA, mean ± SD): 2860 ± 1930 mL | ke ([1]; oral 5 mg/kg, NCA, mean ± SD): 0.0784 ± 0.0245 h⁻¹ | t1/2 ([1]; oral 5 mg/kg, NCA, mean ± SD): 10.0 ± 4.78 h | Tmax ([1]; oral 5 mg/kg, NCA): 3 (3–4) h | AUClast ([1]; oral 15 mg/kg, NCA, mean ± SD): 11600 ± 3240 ng·h/mL | CL/F ([1]; oral 15 mg/kg, NCA, mean ± SD): 323 ± 82.8 mL/h | Cmax ([1]; oral 15 mg/kg, NCA, mean ± SD): 2040 ± 448 ng/mL | V/F ([1]; oral 15 mg/kg, NCA, mean ± SD): 4770 ± 1740 mL | ke ([1]; oral 15 mg/kg, NCA, mean ± SD): 0.0701 ± 0.0107 h⁻¹ | t1/2 ([1]; oral 15 mg/kg, NCA, mean ± SD): 10.1 ± 1.82 h | Tmax ([1]; oral 15 mg/kg, NCA): 2 (2–4) h | AUClast ([1]; oral 45 mg/kg, NCA, mean ± SD): 12700 ± 1900 ng·h/mL | CL/F ([1]; oral 45 mg/kg, NCA, mean ± SD): 887 ± 140 mL/h | V/F ([1]; oral 45 mg/kg, NCA, mean ± SD): 10100 ± 1380 mL | ke ([1]; oral 45 mg/kg, NCA, mean ± SD): 0.0876 ± 0.00791 h⁻¹ | t1/2 ([1]; oral 45 mg/kg, NCA, mean ± SD): 7.97 ± 0.782 h | Tmax ([1]; oral 45 mg/kg, NCA): 3 (2–5) h | CL [1, 5]: 0.0326 (5.58%) L/h | Q [1, 5]: 0.0404 (12.0%) L/h | Vc [1, 5]: 0.0287 (6.41%) L | Vp [1, 5]: 0.285 (8.21%) L | θ5 Coefficient for Q ([2]; brain weight-corrected, Q = θ5 × WT^θ6/BrW, estimate): 0.846 | θ3 Coefficient for Vc [2, 6]: 0.0735 | θ7 Coefficient for Vp [2, 6]: 0.813 | α Scale parameter of WB [2, 6]: 4.51 | β Shape parameter of WB [2, 6]: 3.11 | θ6 Exponent of Q [2, 6]: 2.04 | ωCL Interindividual variability of CL [2, 6]: 25.9% | ωQ Interindividual variability of Q [2, 6]: 60.8% | ωα Interindividual variability of α [2, 6]: 27.0% | ωβ Interindividual variability of β [2, 6]: 24.0% | θ5 Coefficient for Q ([2]; simple allometry, Q = θ5 × WT^θ6, estimate): 0.0549 | θ3 Coefficient for Vc ([2]; simple allometry, estimate): 0.0755 | θ7 Coefficient for Vp ([2]; simple allometry, estimate): 0.829 | α Scale parameter of WB ([2]; simple allometry, estimate): 4.50 | β Shape parameter of WB ([2]; simple allometry, estimate): 3.01 | θ6 Exponent of Q ([2]; simple allometry, estimate): 0.670 | ωCL Interindividual variability of CL ([2]; simple allometry, estimate): 42.8% | ωQ Interindividual variability of Q ([2]; simple allometry, estimate): 23.9% | ωα Interindividual variability of α ([2]; simple allometry, estimate): 27.1% | ωβ Interindividual variability of β ([2]; simple allometry, estimate): 65.7%
Structure (SMILES): COc1cc(F)c(C(C)C)cc1C1=C(CN2C(=O)O[C@H](c3cc(C(F)(F)F)cc(C(F)(F)F)c3)[C@@H]2C)CC(C)(C)CC1 [CKD519]
